Data published in PubChem BioAssay (NCI).
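Assay format: 96-well plates, 48-hour exposure. At the GI50, growth is halved. TGI marks complete inhibition of growth.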

Tests used:
Assay in all cases: NCI anticancer screen, dose series, 48 h
[1] = test system: DLD-1 colon
[2] = test system: DMS 114 small cell lung
[3] = test system: DMS 273 small cell lung
[4] = test system: HOP-18 NSCLC
[5] = test system: KM20L2 colon
[6] = test system: M19-MEL melanoma
[7] = test system: XF 498 CNS
[8] = test system: SNB-78 CNS
[9] = test system: RXF-631 renal

SMILES | TGI [1] [µM] | TGI [2] [µM] | TGI [3] [µM] | TGI [4] [µM] | TGI [5] [µM] | TGI [6] [µM] | TGI [7] [µM] | TGI [8] [µM] | TGI [9] [µM] | GI50 [1] [µM] | GI50 [3] [µM] | GI50 [4] [µM] | GI50 [5] [µM] | GI50 [6] [µM] | GI50 [8] [µM] | GI50 [7] [µM]
O=CC1=CCC2c3[nH]c4ccccc4c3CCN2C1 (stereo unspecified) | 226 | 266 | 212 | > 396 | > 396 | 206 | 213 | – | – | – | – | – | – | – | – | –
C(=C\c1c2oc(-c3ccccc3)cc(-c3ccccc3)c-2c2ccccc12)/C=C1\c2ccccc2-c2c(-c3ccccc3)cc(-c3ccccc3)[o+]c21 | > 100 | > 100 | > 100 | – | > 100 | > 100 | > 100 | > 100 | – | – | – | – | – | – | – | –
O=C(O)/C=C/c1ccncc1 | > 100 | > 100 | > 100 | – | > 100 | > 100 | > 100 | > 100 | – | – | – | – | – | – | – | –
COC(=O)C(NC(=O)c1ccccc1)C(c1c(O)cc(O)cc1O)P(=O)(OC)OC (stereo unspecified) | > 100 | > 100 | > 100 | – | > 100 | > 100 | > 100 | – | > 100 | – | – | – | – | – | – | –
N#CC(NNC(=O)c1ccccc1O)c1c(O)ccc2ccccc12 (stereo unspecified) | > 100 | 5.14 | 14.2 | 8.2 | 68 | 9.62 | – | > 100 | – | – | – | – | – | – | – | –
Cn1c(NC(=O)NC23CC4CC(CC(C4)C2)C3)nc2ccccc21 | > 100 | – | > 100 | > 100 | > 100 | > 100 | – | 97 | – | – | – | – | – | – | – | –
COC(=O)CC1CC2(C(=O)OC)c3[nH]c4ccccc4c3CCN2C1=O (stereo unspecified) | > 100 | > 100 | > 100 | > 100 | > 100 | > 100 | > 100 | > 100 | 31.3 | – | – | – | – | – | – | –
c1cncc([O][Ge]([O]c2cccnc2)([O]c2cccnc2)[O]c2cccnc2)c1 | > 100 | – | > 100 | > 100 | > 100 | > 100 | > 100 | > 100 | – | > 100 | > 100 | > 100 | > 100 | > 100 | > 100 | > 100
Cc1ccc(NCCN(C)C)c2c(=O)c3cc(O)ccc3sc12 | 19.9 | 28 | 15.9 | 15.3 | 22 | 23.1 | 17.2 | 33.7 | – | – | – | – | – | – | – | –
O=C(c1ccccc1)c1cc(Cl)ccc1NCn1nnc2ccccc21 | > 100 | > 100 | > 100 | > 100 | > 100 | > 100 | > 100 | – | – | – | – | – | – | – | – | –
Cc1ccc(NC(=O)C(=O)Cc2cccc[n+]2[O-])cc1C | > 100 | > 100 | – | > 100 | > 100 | > 100 | > 100 | > 100 | – | – | – | – | – | – | – | –
O=C(/C(=C/c1ccc(O)cc1)c1ccccc1)c1ccccc1 | 31 | 24.4 | – | 33.4 | – | 32.4 | – | 70.9 | 29.3 | – | – | – | – | – | – | –
CC(=O)[C@]1(O)Cc2c(O)c3c(c(O)c2[C@@H](OC2CC(N)C(O)C(C)O2)C1)C(=O)c1c(OCc2ccccc2)cccc1C3=O (stereo partly specified) | – | 2.55 | – | 3.33 | – | – | 14.5 | 36.1 | – | – | – | – | – | – | – | –
